Measurements: ChEMBL document CHEMBL3872261, “Coumarins and other fused bicyclic heterocycles with selective tumor-associated carbonic anhydrase isoforms inhibitory activity” (Bioorg Med Chem, 2017)

How the values were obtained:
Carbonic anhydrase 1 = Carbonic anhydrase 1 (Homo sapiens, UniProt P00915); assay: Inhibition of human recombinant carbonic anhydrase-1 preincubated for 6 hrs by stopped-flow CO2 hydration assay
Carbonic anhydrase 2 = Carbonic anhydrase 2 (Homo sapiens, UniProt P00918); assay: Inhibition of human recombinant carbonic anhydrase-2 preincubated for 6 hrs by stopped-flow CO2 hydration assay
Carbonic anhydrase 9 = Carbonic anhydrase 9 (Homo sapiens, UniProt Q16790); assay: Inhibition of human recombinant carbonic anhydrase-9 preincubated for 6 hrs by stopped-flow CO2 hydration assay
Carbonic anhydrase 12 = Carbonic anhydrase 12 (Homo sapiens, UniProt O43570); assay: Inhibition of human recombinant carbonic anhydrase-12 preincubated for 6 hrs by stopped-flow CO2 hydration assay
Chain of Carbonic anhydrase 12 (O43570 whole entry): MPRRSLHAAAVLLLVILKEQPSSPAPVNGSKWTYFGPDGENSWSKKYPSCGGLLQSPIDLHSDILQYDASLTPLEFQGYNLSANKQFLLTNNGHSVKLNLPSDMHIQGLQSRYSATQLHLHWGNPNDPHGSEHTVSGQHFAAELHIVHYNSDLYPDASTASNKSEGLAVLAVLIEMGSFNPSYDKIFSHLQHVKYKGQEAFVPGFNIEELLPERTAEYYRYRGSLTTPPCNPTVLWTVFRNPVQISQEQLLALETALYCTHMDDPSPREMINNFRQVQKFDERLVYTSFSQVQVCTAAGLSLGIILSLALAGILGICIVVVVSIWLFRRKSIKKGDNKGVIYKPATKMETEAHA

Chain of Carbonic anhydrase 1 (P00915 whole entry): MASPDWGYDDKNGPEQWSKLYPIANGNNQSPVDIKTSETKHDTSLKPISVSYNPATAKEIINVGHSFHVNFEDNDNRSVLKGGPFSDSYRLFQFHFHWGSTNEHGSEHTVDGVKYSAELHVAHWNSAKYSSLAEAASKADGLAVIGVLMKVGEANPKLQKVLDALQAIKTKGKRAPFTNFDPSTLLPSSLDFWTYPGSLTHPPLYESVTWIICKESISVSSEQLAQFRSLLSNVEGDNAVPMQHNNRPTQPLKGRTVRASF

CC1=Nc2ccccc2S(=O)(=O)N1
Ki (Carbonic anhydrase 1): 13800 nM | Ki (Carbonic anhydrase 2): 642 nM | Ki (Carbonic anhydrase 9): 349 nM

O=C(Nc1ccccc1C(=O)Nc1ccc2c(C(F)(F)F)cc(=O)oc2c1)c1ccc(F)cc1
Ki (Carbonic anhydrase 1): > 500000 nM | Ki (Carbonic anhydrase 2): > 500000 nM | Ki (Carbonic anhydrase 9): 20 nM

O=c1[nH]c(=O)c2cc([N+](=O)[O-])ccc2[nH]1
Ki (Carbonic anhydrase 1): > 500000 nM | Ki (Carbonic anhydrase 2): > 500000 nM | Ki (Carbonic anhydrase 9): 5470 nM

Cc1cc(=O)oc2cc(NC(=O)c3ccccc3NC(=O)c3ccccc3)ccc12
Ki (Carbonic anhydrase 1): > 500000 nM | Ki (Carbonic anhydrase 2): > 500000 nM | Ki (Carbonic anhydrase 9): 21.6 nM

Cc1cc(=O)oc2cc(NC(=O)c3ccccc3NC(=O)c3ccc(F)cc3)ccc12
Ki (Carbonic anhydrase 1): > 500000 nM | Ki (Carbonic anhydrase 2): > 500000 nM | Ki (Carbonic anhydrase 9): 15.1 nM

O=C(Nc1ccccc1C(=O)Nc1ccc2c(C(F)(F)F)cc(=O)oc2c1)c1ccc(Cl)cc1
Ki (Carbonic anhydrase 1): > 500000 nM | Ki (Carbonic anhydrase 2): > 500000 nM | Ki (Carbonic anhydrase 9): 24.5 nM

O=C1Nc2ccccc2S(=O)(=O)N1
Ki (Carbonic anhydrase 1): 783 nM | Ki (Carbonic anhydrase 2): 127 nM | Ki (Carbonic anhydrase 9): 87.4 nM

Cc1cc(=O)oc2cc(NC(=O)c3ccccc3NC(=O)c3ccc(Cl)cc3)ccc12
Ki (Carbonic anhydrase 1): > 500000 nM | Ki (Carbonic anhydrase 2): > 500000 nM | Ki (Carbonic anhydrase 9): 18.4 nM

O=S1(=O)NC=Nc2ccccc21
Ki (Carbonic anhydrase 1): 12600 nM | Ki (Carbonic anhydrase 2): 378 nM | Ki (Carbonic anhydrase 9): 116 nM

O=C(Nc1ccccc1C(=O)Nc1ccc2c(C(F)(F)F)cc(=O)oc2c1)c1ccccc1
Ki (Carbonic anhydrase 1): > 500000 nM | Ki (Carbonic anhydrase 2): > 500000 nM | Ki (Carbonic anhydrase 9): 10.9 nM

O=c1[nH]cnc2ccccc12 [QUINAZOLINONE]
Ki (Carbonic anhydrase 2): > 500000 nM | Ki (Carbonic anhydrase 9): 15700 nM | Ki (Carbonic anhydrase 12): 10500 nM
